The text below walks through data of US6469013B2, “Therapeutic compounds” (Parker Hughes Institute, priority 1998, dated 2002).

The target in the assay is T1, recombinant murine JAK3 (Mus musculus, UniProt Q62137).
T1 sequence (Q62137 1-1100): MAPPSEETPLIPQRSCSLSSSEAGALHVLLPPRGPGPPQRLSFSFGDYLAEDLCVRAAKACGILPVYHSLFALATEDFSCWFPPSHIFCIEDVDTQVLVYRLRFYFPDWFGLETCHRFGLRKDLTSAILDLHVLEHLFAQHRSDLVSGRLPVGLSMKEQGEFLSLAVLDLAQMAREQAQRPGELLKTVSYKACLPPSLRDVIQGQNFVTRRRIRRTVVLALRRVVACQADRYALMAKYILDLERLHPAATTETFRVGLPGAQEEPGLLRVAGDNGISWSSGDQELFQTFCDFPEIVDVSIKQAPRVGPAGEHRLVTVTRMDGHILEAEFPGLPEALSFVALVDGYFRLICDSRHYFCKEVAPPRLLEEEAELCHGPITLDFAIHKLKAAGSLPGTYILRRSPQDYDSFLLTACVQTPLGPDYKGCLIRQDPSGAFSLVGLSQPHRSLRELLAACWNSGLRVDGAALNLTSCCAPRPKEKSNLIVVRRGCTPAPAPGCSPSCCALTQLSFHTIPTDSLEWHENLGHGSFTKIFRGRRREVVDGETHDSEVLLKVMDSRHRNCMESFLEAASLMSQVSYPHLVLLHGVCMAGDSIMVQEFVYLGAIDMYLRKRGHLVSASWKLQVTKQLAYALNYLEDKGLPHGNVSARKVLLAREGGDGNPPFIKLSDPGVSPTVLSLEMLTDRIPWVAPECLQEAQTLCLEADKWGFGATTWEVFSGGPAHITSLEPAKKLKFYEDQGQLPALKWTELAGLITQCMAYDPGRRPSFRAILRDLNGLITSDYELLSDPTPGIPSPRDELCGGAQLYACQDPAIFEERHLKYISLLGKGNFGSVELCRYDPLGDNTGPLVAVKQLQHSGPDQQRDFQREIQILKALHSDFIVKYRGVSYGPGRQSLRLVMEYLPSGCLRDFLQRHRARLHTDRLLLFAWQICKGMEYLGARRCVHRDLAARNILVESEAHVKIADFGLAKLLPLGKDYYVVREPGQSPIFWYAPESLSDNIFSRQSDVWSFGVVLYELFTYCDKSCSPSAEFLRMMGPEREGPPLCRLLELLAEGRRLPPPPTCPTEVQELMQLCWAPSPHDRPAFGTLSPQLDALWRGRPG
Briefly: Recombinant JAK3 immune complex kinase assay (baculovirus, Sf21). The assay is classed as biochemical. The protocol:
Sf21 (IPLB-SF21-AE) cells (Vassilev, A., et al., J. Biol. Chem. 274: 1646-1656, 1999) derived from the ovarian tissue of the fall armyworm Spodotera frugiperda, were obtained from Invitrogen (Carlsbad, Calif.) and maintained at 26-28° C. in Grace's insect cell medium supplemented with 10% FBS and 1.0% antibiotic/antimycotic (GIBCO-BRL). Stock cells were maintained in suspension at 0.2-1.6×10^6/ml in 600 ml total culture volume in 1 L Bellco spinner flasks at 60-90 rpm. Cell viability was maintained at 95-100% as determined by trypan blue dye exclusion. Sf21 cells were infected with a baculovirus expression vector for BTK, SYK, JAK1, JAK2, or JAK3. Cells were harvested, lysed (10 MM Tris pH7.6, 100 mM NaCl, 1% Nonidet P40, 10% glycerol, 50 mM NaF, 100 μM Na3VO4, 50 μg/ml phenylmethylsulfonyl fluoride, 10 μg/ml aprotonin, 10 μg/ml leupeptin), the kinases were immunoprecipitated from the lysates, and their enzymatic activity assayed, as reported (Vassilev, A., et al., J. Biol. Chem. 274: 1646-1656, 1999; Uckun, F. M., et al., Science. 22: 1096-1100, 1996; Goodman, P. A., et al., J. Biol. Chem. 273: 17742-48, 1998; Mahajan, S., et al., Mol. Cell. Biol. 15: 5304-11, 1995; and Uckun, F. M., et al., Science. 267: 886-91, 1995). The immunoprecipitates were subjected to Western blot analysis as previously described (Vassilev, A., et al., J. Biol. Chem. 274: 1646-1656, 1999; and Uckun, F. M., et al., Science. 22: 1096-1100, 1996).
In JAK3 immune complex kinase assays (17, 22), KL-2 EBV-transformed human lymphoblastoid B cells (native JAK3 kinase assays) or insect ovary cells (recombinant JAK3 kinase assays) were lysed with NP-40 lysis buffer (50 mM Tris, pH 8, 150 mM NaCl, 5 mM EDTA, 1% NP-40, 100 μM sodium orthovanadate, 100 μM sodium molybdate, 8 μg/ml aprotinin, 5 μg/ml leupeptin, and 500 μM PMSF) and centrifuged 10 min at 13000× g to remove insoluble material. Samples were immunoprecipitated with antisera prepared against JAK3. The antisera were diluted and immune complexes collected by incubation with 15 μl protein A Sepharose. After 4 washes with NP-40 lysis buffer, the protein A Sepharose beads were washed once in kinase buffer (20 mM MOPS, pH7, 10 mM MgCl2) and resuspended in the same buffer. Reactions were initiated by the addition of 25 μCi [γ^32P] ATP (5000 Ci/mMole) and unlabeled ATP to a final concentration of 5 μM. Reactions were terminated by boiling for 4 min in SDS sample buffer. Samples were run on 9.5% SDS polyacrylamide gels and labeled proteins were detected by autoradiography. […] For each drug concentration, a kinase activity index (KA) was determined by comparing the kinase activity in phosphorimager units (PIU) to that of the baseline sample. […]

The IC50 is the point on the concentration scale where inhibition reaches its midpoint. As for `COc1cc2ncnc(Nc3ccc(O)cc3)c2cc1OC` [WHI-P131, 4-(4′-hydroxyl-phenyl)-amino-6,7-dimethoxyquinazoline], the IC50 was 78 µM (recombinant murine JAK3) and roughly 78 µM (recombinant murine JAK3, converted from μg/ml).
